Results on 1 molecule are retold here after publication PMC9911596 (Nature Communications, 2023).

The assay concerns the target T1, Vtc1/Vtc3/Vtc4 complex (VTC complex) (Saccharomyces cerevisiae, UniProt P47075+Q02725, Q02725:K126A/Q02725:K129A/Q02725:K133A).
T1 construct: full-length subunits co-expressed in Expi293F; Vtc1 C-terminal HA, Vtc3 N-terminal 3xFlag, Vtc4 C-terminal 2xStrep; detergent-purified; 3:1:1 pentamer; with Vacuolar transporter chaperone complex subunit 1
T1 sequence (P47075 1-721): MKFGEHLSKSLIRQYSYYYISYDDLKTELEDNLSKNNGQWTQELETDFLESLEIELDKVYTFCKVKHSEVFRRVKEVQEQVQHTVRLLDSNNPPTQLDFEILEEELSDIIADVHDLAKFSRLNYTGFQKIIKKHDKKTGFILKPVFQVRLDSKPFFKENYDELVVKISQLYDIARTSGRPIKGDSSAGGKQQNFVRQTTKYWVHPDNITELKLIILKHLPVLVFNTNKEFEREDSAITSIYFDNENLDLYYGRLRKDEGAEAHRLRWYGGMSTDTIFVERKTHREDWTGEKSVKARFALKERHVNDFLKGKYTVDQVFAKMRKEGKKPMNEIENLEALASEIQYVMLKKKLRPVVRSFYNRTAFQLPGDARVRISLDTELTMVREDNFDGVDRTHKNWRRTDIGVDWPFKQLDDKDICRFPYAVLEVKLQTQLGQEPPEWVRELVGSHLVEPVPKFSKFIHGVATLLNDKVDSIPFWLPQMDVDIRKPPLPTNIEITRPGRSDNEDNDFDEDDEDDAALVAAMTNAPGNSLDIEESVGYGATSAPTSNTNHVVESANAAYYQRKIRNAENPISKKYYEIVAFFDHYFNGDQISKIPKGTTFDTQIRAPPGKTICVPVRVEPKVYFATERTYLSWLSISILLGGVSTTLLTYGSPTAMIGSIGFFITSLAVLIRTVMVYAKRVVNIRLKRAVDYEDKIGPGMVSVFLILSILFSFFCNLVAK
T1 sequence (Q02725 1-835 K126A/K129A/K133A): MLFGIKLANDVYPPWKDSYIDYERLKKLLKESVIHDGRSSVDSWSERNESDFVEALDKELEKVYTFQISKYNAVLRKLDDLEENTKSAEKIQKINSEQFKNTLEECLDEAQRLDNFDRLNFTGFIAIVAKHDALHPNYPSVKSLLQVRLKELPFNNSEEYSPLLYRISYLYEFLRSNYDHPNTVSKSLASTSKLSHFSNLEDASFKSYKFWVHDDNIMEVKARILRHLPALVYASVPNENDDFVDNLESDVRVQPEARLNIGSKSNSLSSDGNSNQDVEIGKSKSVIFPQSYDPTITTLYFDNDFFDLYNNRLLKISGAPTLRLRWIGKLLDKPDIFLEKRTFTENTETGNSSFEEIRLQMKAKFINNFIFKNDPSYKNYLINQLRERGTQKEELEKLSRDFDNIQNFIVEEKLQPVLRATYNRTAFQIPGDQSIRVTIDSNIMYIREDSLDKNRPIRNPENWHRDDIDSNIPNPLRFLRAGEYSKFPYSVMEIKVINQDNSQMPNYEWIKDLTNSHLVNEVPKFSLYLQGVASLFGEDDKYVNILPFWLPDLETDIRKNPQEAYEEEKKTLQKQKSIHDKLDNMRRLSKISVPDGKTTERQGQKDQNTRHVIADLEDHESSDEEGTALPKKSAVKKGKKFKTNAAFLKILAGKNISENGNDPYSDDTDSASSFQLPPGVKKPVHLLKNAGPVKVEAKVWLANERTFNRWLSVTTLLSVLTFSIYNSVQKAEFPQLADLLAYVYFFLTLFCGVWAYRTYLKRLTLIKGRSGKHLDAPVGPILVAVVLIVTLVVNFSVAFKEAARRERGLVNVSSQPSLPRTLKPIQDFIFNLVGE
T1 sequence (P40046 2-129 partner): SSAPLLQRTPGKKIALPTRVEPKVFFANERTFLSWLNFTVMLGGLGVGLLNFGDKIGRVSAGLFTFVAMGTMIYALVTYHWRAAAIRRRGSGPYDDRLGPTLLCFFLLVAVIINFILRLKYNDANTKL
In words: polyP synthesis, TBE-PAGE. The conditions noted are these: activator; 15 mM ATP, 10 mM MgCl2, 1 mM MnCl2, 0.5 mM pyrophosphate, 27 °C, 4 h; SPX KSC mutant. Type of assay: biochemical.

As for `O=P(O)(O)O[C@H]1[C@H](OP(=O)(O)O)[C@@H](OP(=O)(O)O)[C@H](OP(=O)(O)O)[C@@H](OP(=O)(O)O)[C@H]1OP(=O)(O)O` [InsP6], the “polyP synthesis, TBE-PAGE” value was “residues had little effect on polyP synthesis”.
